Values quoted from earlier work, collected in US8298564B2, “Two part antimicrobial boot” (Medtronic, Inc., priority 2006, dated 2012).

Key:
[1] = not given; remark: listed apart in the source

## CN(C)c1ccc(O)c2c1C[C@H]1C[C@H]3[C@H](N(C)C)C(O)=C(C(N)=O)C(=O)[C@@]3(O)C(O)=C1C2=O [minocycline]
other
  degradation under steam sterilization: degrades to unacceptable levels
[1]; ethylene oxide sterilization
  degradation with ethylene oxide sterilization: does not appear to substantially degrade

## CO[C@H]1/C=C/O[C@@]2(C)Oc3c(C)c(O)c4c(O)c(c(/C=N/N5CCN(C)CC5)c(O)c4c3C2=O)NC(=O)/C(C)=C\C=C\[C@H](C)[C@H](O)[C@@H](C)[C@@H](O)[C@@H](C)[C@H](OC(C)=O)[C@@H]1C [rifampin]
other
  degradation under steam sterilization: fairly stable
[1]; devices containing rifampin treated with ethylene oxide, reported by numerous studies
  degradation or loss in antimicrobial activity of rifampin-containing devices treated with ethylene oxide: no detectable degradation or no loss in antimicrobial activity
[1]; ethylene oxide sterilization
  degradation on ethylene oxide sterilization, as discovered in U.S. patent application Ser. No. 11/535,762: substantial degradation
